Laboratory results as given in patent US10532066B2, “Surfactant lipids, compositions thereof, and uses thereof” (National Jewish Health, priority 2007, dated 2020).

Legend:
Format in all cases: cell-based
[1] = target: T1, TLR4 (Homo sapiens, UniProt O00206); experiment: TLR agonist IL-8 production in primary human neutrophils, TLR4; conditions: LPS, 5-24 h
T1 construct: multiple Toll-like receptors (TLRs) on primary human neutrophils; endogenous in cells; host or cells: primary human neutrophils
Description: (§1) In this experiment, multiple TLRs were stimulated with defined TLR agonists for 5-24 h as indicated, and the IL-8 production was measured. In each case the maximal stimulation by agonist is set at 100% and the antagonism by POPG is expressed as the relative % response. The Controls consist of no treatment, or treatment with POPG, in the absence of agonist as indicated. The agonists for the TLRs consist of Pam3Cys for TLR1/2, double stranded RNA (poly IC) for TLR3, Gram-negative lipopolysaccharide (LPS) for TLR4, and single stranded RNA (polyU) for TLR7/8.

[2] = target: T2, TLR1 (Homo sapiens, UniProt Q15399); experiment: TLR agonist IL-8 production in BEAS2B epithelial cells, TLR1; set-up: endogenous in cells; host or cells: BEAS2B; conditions: Pam3Cys, 48 h
T2 sequence (Q15399 25-786): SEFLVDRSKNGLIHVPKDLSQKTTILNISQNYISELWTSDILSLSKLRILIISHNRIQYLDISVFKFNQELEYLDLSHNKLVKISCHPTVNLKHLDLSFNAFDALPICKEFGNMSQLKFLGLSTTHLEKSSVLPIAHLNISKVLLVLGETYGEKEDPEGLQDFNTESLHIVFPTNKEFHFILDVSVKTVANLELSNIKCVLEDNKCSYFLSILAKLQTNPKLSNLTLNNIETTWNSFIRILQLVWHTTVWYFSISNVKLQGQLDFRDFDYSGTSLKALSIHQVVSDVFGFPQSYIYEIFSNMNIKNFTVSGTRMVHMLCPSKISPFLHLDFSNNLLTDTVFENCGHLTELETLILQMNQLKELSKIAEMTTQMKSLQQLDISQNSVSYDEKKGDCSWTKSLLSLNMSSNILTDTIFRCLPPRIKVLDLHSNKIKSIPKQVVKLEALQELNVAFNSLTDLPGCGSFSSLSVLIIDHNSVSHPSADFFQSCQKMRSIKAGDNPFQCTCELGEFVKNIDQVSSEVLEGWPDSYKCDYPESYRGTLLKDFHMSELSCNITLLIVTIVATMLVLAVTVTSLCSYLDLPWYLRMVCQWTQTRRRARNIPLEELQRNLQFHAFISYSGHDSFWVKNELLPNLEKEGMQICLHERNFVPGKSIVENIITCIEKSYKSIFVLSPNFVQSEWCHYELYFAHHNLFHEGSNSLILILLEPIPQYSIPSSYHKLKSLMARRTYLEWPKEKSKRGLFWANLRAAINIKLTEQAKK
Description: (§2) In this experiment, multiple TLRs were stimulated with defined TLR agonists for 48 h, and the IL-8 production was measured. In each case, the maximal stimulation by agonist is set at 100% and the antagonism by POPG or PI is expressed as the relative % response. The Controls consist of no treatment, or treatment with POPG, or phosphatidylcholine (POPC), or phosphatidylinositol (PI), in the absence of agonist as indicated. The agonists for the TLRs consist of Pam3Cys for TLR1/2, Mycoplasma pneumoniae membranes as an agonist for TLR2, Mycoplasma fermentans derived MALP2 as an agonist for TLR 2/6, double stranded RNA (poly IC) for TLR3, and bacterial flagellin (Fla) as an agonist for TLR5.
(§3) Monolayers of BEAS2B cells were challenged with the TLR1/2 agonist, Pam3Cys (25 ug/ml); the TLR 2/6 agonist MALP2 (10 ng/ml); the TLR2 agonist mycoplasma membrane (Mem) (1 ug/ml); the TLR3 agonist, poly I:C (0.1 ug/ml); and the TLR5 agonist, flagellin (100 ng/ml). For each agonist parallel incubations were performed containing 200 ug/ml POPG as liposomes, or 200 ug/ml POPG as nanodises as indicated.

[3] = system: Respiratory Syncytial Virus (RSV); experiment: RSV-induced cytokine production in NHBE cells
[4] = target: T2, TLR1; experiment: TLR agonist IL-8 production in primary human neutrophils, TLR1; set-up: endogenous in cells; host or cells: primary human neutrophils; conditions: Pam3Cys, 5-24 h
Description: as §1

[5] = system: TLR4; experiment: TLR agonist TNFα production in RAW 264.7 cells, TLR4; conditions: lipopolysaccharide, 24 h
Description: In this experiment, multiple TLRs were stimulated with defined TLR agonists for 24 h and the TNFα production was measured. In each case, the maximal stimulation by agonist is set at 100% and the antagonism by POPG is expressed as the relative % response. The Controls consist of no treatment, or treatment with POPG in the absence of agonist as indicated. The agonists for the TLRs consist of Pam3Cys for TLR1/2, Mycoplasma pneumoniae membranes as an agonist for TLR2, mycoplasma derived MALP2 as an agonist for TLR 2/6, double stranded RNA (poly IC) for TLR3, Gram-negative lipopolysaccharide for TLR4, and CpG rich DNA as an agonist for TLR9. The TLR4 panel also contains the antagonist polymyxin B (PB) for comparison with POPG.

[6] = system: influenza-A virus H3N2; conditions: BEAS2B, multiplicities 1-10, 24, 48 and 72 h, 200 ug/ml POPG added 30 minutes prior
[7] = target: TLR2 (Homo sapiens, UniProt O60603); experiment: TLR agonist IL-8 production in BEAS2B epithelial cells, TLR2; set-up: endogenous in cells; host or cells: BEAS2B; conditions: Mycoplasma pneumoniae membranes, 48 h
Description: as §2, §3

[8] = target: T3, TLR6 (Homo sapiens, UniProt Q9Y2C9); experiment: TLR agonist IL-8 production in BEAS2B epithelial cells, TLR6; conditions: MALP2, 48 h
T3 construct: endogenous in cells; host or cells: BEAS2B
Description: as §2, §3

[9] = RSV multiplicity 3, 48 h, lipid 200 ug/ml

Chain of TLR2 (O60603 21-784): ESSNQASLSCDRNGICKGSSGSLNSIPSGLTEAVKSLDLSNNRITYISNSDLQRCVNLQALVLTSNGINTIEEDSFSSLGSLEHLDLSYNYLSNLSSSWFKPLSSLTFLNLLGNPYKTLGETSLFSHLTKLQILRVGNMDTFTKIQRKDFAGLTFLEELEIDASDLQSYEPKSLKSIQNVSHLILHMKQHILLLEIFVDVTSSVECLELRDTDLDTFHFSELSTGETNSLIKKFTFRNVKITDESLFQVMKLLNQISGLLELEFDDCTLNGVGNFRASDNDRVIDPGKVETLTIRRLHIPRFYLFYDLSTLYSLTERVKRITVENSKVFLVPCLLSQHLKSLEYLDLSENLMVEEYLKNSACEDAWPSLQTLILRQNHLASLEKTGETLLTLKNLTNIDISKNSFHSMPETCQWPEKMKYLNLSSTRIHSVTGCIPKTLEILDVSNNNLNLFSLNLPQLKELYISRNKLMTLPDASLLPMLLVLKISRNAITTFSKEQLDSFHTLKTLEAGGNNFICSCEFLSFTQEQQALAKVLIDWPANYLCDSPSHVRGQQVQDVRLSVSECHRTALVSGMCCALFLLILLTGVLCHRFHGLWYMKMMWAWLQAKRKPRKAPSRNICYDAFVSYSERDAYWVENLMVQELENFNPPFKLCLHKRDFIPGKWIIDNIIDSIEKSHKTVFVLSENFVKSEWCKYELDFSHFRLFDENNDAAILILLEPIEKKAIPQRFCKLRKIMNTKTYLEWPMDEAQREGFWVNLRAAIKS
T3 sequence (Q9Y2C9 32-796): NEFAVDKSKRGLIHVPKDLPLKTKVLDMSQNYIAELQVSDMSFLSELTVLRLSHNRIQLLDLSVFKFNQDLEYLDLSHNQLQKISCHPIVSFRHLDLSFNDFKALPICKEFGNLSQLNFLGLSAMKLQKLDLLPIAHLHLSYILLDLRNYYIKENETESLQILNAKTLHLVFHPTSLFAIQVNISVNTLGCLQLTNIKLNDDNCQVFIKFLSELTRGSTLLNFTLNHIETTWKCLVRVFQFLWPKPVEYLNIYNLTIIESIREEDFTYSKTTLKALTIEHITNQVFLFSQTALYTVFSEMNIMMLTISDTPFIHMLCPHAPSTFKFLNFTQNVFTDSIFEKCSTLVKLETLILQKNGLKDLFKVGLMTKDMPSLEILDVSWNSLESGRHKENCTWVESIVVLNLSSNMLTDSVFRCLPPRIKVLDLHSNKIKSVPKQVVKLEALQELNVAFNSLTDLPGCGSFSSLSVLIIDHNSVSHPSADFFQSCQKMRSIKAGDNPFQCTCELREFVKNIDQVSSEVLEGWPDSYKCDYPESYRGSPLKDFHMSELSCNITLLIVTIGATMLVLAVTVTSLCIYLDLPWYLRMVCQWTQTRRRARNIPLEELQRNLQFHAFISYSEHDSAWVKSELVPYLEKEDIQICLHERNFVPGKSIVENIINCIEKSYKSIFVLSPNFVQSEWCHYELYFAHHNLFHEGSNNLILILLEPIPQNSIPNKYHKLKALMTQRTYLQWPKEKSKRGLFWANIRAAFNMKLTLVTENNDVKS
T1 sequence (O00206 24-839): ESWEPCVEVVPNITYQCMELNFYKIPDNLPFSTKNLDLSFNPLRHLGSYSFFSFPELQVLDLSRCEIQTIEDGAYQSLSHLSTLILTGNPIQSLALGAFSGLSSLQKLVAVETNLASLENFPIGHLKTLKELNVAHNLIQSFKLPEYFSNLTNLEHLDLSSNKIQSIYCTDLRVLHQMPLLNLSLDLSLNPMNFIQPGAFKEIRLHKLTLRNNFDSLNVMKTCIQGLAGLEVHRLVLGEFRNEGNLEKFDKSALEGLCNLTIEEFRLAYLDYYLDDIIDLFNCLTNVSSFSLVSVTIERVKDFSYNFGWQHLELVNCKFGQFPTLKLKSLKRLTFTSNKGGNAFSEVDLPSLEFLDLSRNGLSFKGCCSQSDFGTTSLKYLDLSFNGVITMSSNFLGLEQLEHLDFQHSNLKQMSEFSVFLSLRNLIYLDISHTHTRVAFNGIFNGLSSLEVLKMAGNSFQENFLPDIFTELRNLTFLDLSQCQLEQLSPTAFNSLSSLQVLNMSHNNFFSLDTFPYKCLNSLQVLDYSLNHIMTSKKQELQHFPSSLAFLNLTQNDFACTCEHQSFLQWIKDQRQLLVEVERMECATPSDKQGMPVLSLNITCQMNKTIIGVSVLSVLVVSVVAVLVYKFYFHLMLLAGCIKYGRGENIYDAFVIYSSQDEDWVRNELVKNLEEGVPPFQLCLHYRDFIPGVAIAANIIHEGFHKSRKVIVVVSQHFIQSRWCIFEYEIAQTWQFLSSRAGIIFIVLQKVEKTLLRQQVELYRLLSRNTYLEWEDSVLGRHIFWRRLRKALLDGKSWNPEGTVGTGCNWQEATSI
T1 sequence (Q9Y6Y9 19-160 partner): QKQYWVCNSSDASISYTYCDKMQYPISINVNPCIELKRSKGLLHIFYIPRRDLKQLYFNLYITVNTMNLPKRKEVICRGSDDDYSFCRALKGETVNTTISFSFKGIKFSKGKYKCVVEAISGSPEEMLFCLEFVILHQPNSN

Compound | activity of TLR4 (IL-8 production) [1] | activity of TLR1 (IL-8 production) [2] | inflammatory cytokine production (IL-6, IL-8) ([3]; RSV multiplicity 0.5-1, 48 h, 200 ug/ml) | IL-6 production [3, 9] | IL-8 production [3, 9] | activity of TLR1 (IL-8 production) [4] | activity of TLR4 (TNFα production) [5] | influenza-A induced IL-8 production [6] | activity of TLR2 (IL-8 production) [7] | activity of TLR6 (IL-8 production) [8]
CCCCCCCC/C=C\CCCCCCCC(=O)O[C@H](COC(=O)CCCCCCCCCCCCCCC)COP(=O)(O)OCC(O)CO (stereo partly shown) [POPG, palmitoyl-oleoyl-phosphatidylglycerol] | inhibits | inhibit | suppresses | inhibits | inhibits | inhibits | inhibits | suppresses | inhibit | inhibit
phosphatidylinositol [PI] |  | inhibit |  |  |  |  |  |  | inhibit | inhibit
